Reference: patent publication US20250197425A1, “2,6,9-TRISUBSTITUTED PURINES” (ASTRAZENECA AB, priority 2022, published 2025)
Values after ≈ are worked out from the molar mass of the structure shown.

Columns and labels:
CDK1:CCNB1 = CDK1:CCNB1 (Homo sapiens (Human), UniProt P06493); test: NanoBRET assay in MCF-7 cells, CDK1; format: cell-based; conditions: NanoBRET, transfected MCF-7 cells, 2 hours; n = 1 or average; read-out: CDK1 IC50
Procedure, shortened: (§1)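 Intracellular target engagement was measured by NanoBRET ratio (460 nm/610 nm) in live MCF-7 cells transiently carrying CDK4:CCND1 (Tracer K-7, 100 μM stock) or CDK1:CCNB1 (Tracer K-9, 400 μM stock).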

CDK4:CCND1 = CDK4:CCND1 (Homo sapiens (Human), UniProt P11802); test: NanoBRET assay in MCF-7 cells, CDK4; format: cell-based; conditions: NanoBRET, transfected MCF-7 cells, 2 hours; n = 1 or average; read-out: CDK4 IC50
Procedure, shortened: as §1

[1] = CLint assessment in human liver microsomes (HLM); format: in vitro ADME; conditions: 1 μM
Procedure, shortened: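 Microsomes preincubated 8 min with NADPH, then compound added and incubated 30 min at 37° C. Remaining compound measured by LC-MS/MS. t1/2 and CLint calculated, with CLint scaled to incubation volume per mg microsomal protein.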

[2] = Aqueous thermodynamic solubility, shake-flask; format: physicochemical; conditions: aqueous phosphate buffer, 25 °C, pH 7.4, aqueous buffer, thermodynamic from solid, phosphate buffer 0.1 M, pH 7.4, 24 hours
Procedure, shortened: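 After 24 h stirring at 25° C. in pH 7.4 phosphate buffer (0.1 M), solid-free supernatant from two centrifugations was quantified by UPLC/MS/MS after dilution in water. Compound was added as dried material after DMSO removal.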

[3] = target: 379 non-CDK kinase (or non-CDK kinase-complex) targets; test: Kinase profiling (SelectScreen, ThermoFisher); format: biochemical; conditions: compared with Compound 6
From the text: Test compounds were profiled against a broad panel of kinases at ThermoFisher Scientific using the SelectScreen Kinase Profiling Services. Each kinase assay used one of the following assay technology protocols: • 1) Z-LYTE™ Screening Protocol and Assay Conditions (Revised 23 Jan. 2018 version) available at http://assets.thermofisher.com/TFS-Assets/BID/Methods-&-Protocols/20180123_SSBK_Customer_Protocol_and_Assay_Conditions.pdf; • 2) Adapta™ Screening Protocol and Assay Conditions (Revised 23 Jan. 2018 version) available at http://assets.thermofisher.com/TFS-Assets/BID/Methods-&-Protocols/20180123_SSBK_Adapta_Customer_Protocol_and_Assay_Conditions.pdf; or • 3) LanthaScreen™ Eu Kinase Binding Assay Screening Protocol and Assay Conditions (Revised 23 Jan. 2018 version) available at http://assets.thermofisher.com/TFS-Assets/BID/Methods-&-Protocols/20180123_SSBK_LanthaScreen_Binding_Customer_Protocol_and_Assay_Co nditions.pdf.

[4] = tested on: 97 targets (GPCRs, ion channels, transporters, enzymes, kinases); test: Secondary pharmacology panel (Eurofins CEREP); conditions: compared with Compound 6
Description: Secondary pharmacology assays were performed at Eurofins CEREP using standard experimental techniques. Specifically, radioligand binding assays were used to assess the ability of test compounds to interact with G-protein coupled receptors (GPCRs), ion channels, and transmembrane transporters. Assays measuring substrate turnover or phosphorylation by isolated proteins were used for enzyme and kinase targets, allowing direct determination of the mode of action of the tested compounds.

SKOV3 cells = test: Cell proliferation CyQUANT assay, SKOV3; format: cell-based; conditions: Homo sapiens, SK-OV-3, 168 h; CyQUANT cell counts, 7 days
Description: An imaging-based assay was used to investigate changes in cell number in OVCAR3 cells (CCNE1-amplified ovarian cancer cell line) and SKOV3 cells (non-amplified ovarian cancer cell line) treated with test compounds.
Cells were plated in 384 well plates (Perkin-Elmer 6057300) in RPMI-1640/10% FBS/1× L-Glu at 500 cells per well in 30 μL and incubated with test compound at 37° C. and 5% CO2 for 7 days. Cells were then stained using the CyQuant Direct Cell Proliferation Assay Kit (Thermo Cat #C7026) in accordance with the kit protocol. The stained cells were imaged using an Operetta high content imager to generate cell counts and IC50 values were calculated relative to DMSO controls.

Sequence of CDK4:CCND1 (P11802 whole entry): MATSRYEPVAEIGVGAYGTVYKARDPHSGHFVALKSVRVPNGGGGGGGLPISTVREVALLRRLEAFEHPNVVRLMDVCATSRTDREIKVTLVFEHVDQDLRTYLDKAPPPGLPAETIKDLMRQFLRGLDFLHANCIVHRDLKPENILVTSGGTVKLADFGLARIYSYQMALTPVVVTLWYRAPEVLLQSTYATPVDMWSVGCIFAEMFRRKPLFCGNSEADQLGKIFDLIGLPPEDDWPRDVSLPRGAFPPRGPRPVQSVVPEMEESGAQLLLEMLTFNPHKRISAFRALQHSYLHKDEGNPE
Sequence of CDK4:CCND1 (P24385 whole entry partner): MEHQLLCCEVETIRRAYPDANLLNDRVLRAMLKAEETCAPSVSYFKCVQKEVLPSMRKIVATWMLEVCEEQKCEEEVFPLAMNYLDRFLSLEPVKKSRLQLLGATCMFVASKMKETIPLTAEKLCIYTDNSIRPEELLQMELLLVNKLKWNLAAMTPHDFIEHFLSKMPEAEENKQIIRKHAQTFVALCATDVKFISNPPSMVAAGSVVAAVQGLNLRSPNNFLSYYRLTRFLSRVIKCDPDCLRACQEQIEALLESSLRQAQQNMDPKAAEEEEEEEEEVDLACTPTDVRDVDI
Sequence of CDK1:CCNB1 (P06493 whole entry): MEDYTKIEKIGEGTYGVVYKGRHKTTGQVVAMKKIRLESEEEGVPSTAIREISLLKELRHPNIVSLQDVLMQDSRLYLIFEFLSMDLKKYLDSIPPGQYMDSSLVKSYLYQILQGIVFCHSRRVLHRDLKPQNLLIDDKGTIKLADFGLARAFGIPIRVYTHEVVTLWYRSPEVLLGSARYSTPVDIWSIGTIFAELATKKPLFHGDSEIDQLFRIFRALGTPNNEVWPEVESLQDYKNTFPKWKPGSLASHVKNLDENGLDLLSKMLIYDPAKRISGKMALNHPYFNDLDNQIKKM
Sequence of CDK1:CCNB1 (P14635 whole entry partner): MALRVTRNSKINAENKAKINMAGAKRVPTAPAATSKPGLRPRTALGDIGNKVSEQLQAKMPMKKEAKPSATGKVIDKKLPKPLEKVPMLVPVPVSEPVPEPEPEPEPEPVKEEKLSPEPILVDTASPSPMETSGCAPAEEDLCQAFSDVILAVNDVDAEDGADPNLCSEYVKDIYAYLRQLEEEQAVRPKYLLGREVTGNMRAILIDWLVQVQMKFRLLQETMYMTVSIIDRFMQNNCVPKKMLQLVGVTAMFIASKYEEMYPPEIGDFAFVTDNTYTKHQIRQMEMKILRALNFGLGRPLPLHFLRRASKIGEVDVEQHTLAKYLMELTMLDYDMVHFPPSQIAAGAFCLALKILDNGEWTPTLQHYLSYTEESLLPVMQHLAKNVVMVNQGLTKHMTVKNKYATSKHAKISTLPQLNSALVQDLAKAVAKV

| IC50 (CDK1:CCNB1) [nM] | IC50 (CDK4:CCND1) [µM] | HLM CLint [1] [µL/min/mg] | solubility at 24 h [2] [µM] | IC50 (SKOV3 cells) [µM] | Compound | kinase inhibition profile [3] | secondary pharmacology profile [4] |
| --- | --- | --- | --- | --- | --- | --- | --- |
| 636 | 12.8 | 45.2 | 48 (≈ 22.6 µg/mL) | – | CCn1cnc2c(N[C@H]3CCN(S(=O)(=O)NC)C3)nc(-c3cccc4c3CC[C@]4(C)O)nc21 (relative stereo) [Example 3, (S)-3-((9-ethyl-2-((R*)-1-hydroxy-1-methyl-2,3-dihydro-1H-inden-4-yl)-9H-purin-6-yl)amino)-N-methylpyrrolidine-1-sulfonamide] | broadly similar kinase inhibition profiles to Compound 6 | broadly similar secondary pharmacology to Compound 6 |
| 114 | 1.2 | 46 | 280 (≈ 134 µg/mL) | 1.16 | CCn1cnc2c(N[C@@H]3CN(S(=O)(=O)c4ncc[nH]4)C[C@H]3F)nc(N[C@@H](CO)C3CC3)nc21 (relative stereo) [Example 17, (R)-2-((6-(((3R*,4R*)-1-((1H-imidazol-2-yl)sulfonyl)-4-fluoropyrrolidin-3-yl)amino)-9-ethyl-9H-purin-2-yl)amino)-2-cyclopropylethan-1-ol] | – | – |
| 342 | 5.8 | – | – | 4.04 | CCNS(=O)(=O)N1CC[C@H](Nc2nc(N[C@@H](CO)C3CC3)nc3c2ncn3C)C1 [Example 19, (S)-3-((2-(((R)-1-cyclopropyl-2-hydroxyethyl)amino)-9-methyl-9H-purin-6-yl)amino)-N-ethylpyrrolidine-1-sulfonamide] | broadly similar kinase inhibition profiles to Compound 6 | – |
| 1800 | > 29.7 | – | – | 10.7 | CCNS(=O)(=O)N1CC[C@H](Nc2nc(N[C@@H](CC)[C@@H](C)O)nc3c2ncn3C)C1 [Example 53, (S)—N-ethyl-3-((2-(((2R,3S)-2-hydroxypentan-3-yl)amino)-9-methyl-9H-purin-6-yl)amino)pyrrolidine-1-sulfonamide] | broadly similar kinase inhibition profiles to Compound 6 | – |
